Values quoted from earlier work as cited in patent US20010036486A1, “Method for treating nicotine addiction and deterring tobacco use with hypericum perforatum” (priority 2000, published 2001).

Conditions: small study; Edward et al. 1989

## CN(C)CCC=C1c2ccccc2COc2ccccc21 [doxepin]
  help for smoking cessation: showed some promise for helping smoking cessation
